Patent publication US7964531B2, “3-phenoxy-4-pyridazinol derivatives and herbicidal composition containing the same” (Mitsui Chemicals Agro, Inc., priority 2001, dated 2011)
Counter-ions that a name gives are not always drawn.

Structure (SMILES) | melting point
Cc1cccc(C2CC2)c1Oc1nnc(Cl)cc1OC(=O)N(C)C | 136 to 138 °C
CC1CCc2c(Oc3nnc(Cl)cc3O)cccc21 (stereo not drawn) [Compound No. 510, 6-Chloro-3-[(1-methyl-2,3-dihydro-1H-inden-4-yl)oxy]-4-pyridazinol] | 228 to 230 °C
CCCc1cccc(CCC)c1Oc1nnc(Cl)cc1O [Compound No. 890, 6-Chloro-3-(2,6-dipropylphenoxy)-4-pyridazinol] | 191 to 193 °C
Cc1cccc(C2CC2)c1Oc1nnc(Cl)cc1OC(=O)c1ccc(C(=O)Oc2cc(Cl)nnc2Oc2c(C)cccc2C2CC2)cc1 [Compound No. 3001, Bis[6-chloro-3-(2-cyclopropyl-6-methylphenoxy)-4-pyridazinyl]terephthalate] | 247 to 249 °C
Oc1cc(Cl)nnc1Oc1c(Cl)cccc1Br [Compound No. 734, 3-(2-Bromo-6-chlorophenoxy)-6-chloro-4-pyridazinol] | 266 to 274 °C
CCC(C)c1cccc(C)c1Oc1nnc(Cl)cc1O (stereo not drawn) [Compound No. 804, 3-(2-s-Butyl-6-methylphenoxy)-6-chloro-4-pyridazinol] | 187 to 189 °C
Cc1ccccc1Oc1nnc(Cl)cc1OC(=O)c1ccc(Cl)cc1Cl [Compound No. 1603, 6-Chloro-3-(2-methylphenoxy)-4-pyridazinyl 2,4-dichlorobenzoate] | 81 to 82.5 °C
Oc1cc(Cl)nnc1Oc1cccc2c1OCO2 [Compound No. 544, 3-(1,3-Benzodioxol-4-yloxy)-6-chloro-4-pyridazinol] | 206 to 211 °C
Cc1cccc(C2CC2)c1Oc1nnc(Cl)cc1OS(=O)(=O)c1ccccc1 [Compound No. 2176, 6-Chloro-3-(2-cyclopropyl-6-methylphenoxy)-4-pyridazinyl benzenesulfonate] | 105 to 106 °C
Oc1cc(Cl)nnc1Oc1ccccc1C1OCCO1 [Compound No. 329, 6-Chloro-3-[2-(1,3-dioxolan-2-yl)phenoxy]-4-pyridazinol] | 143 to 145 °C
Cc1cccc(C2CC2)c1Oc1nnc(Cl)cc1OS(=O)(=O)C(F)(F)F [Compound No. 2106, 6-Chloro-3-(2-cyclopropyl-6-methylphenoxy)-4-pyridazinyl trifluoromethanesulfonate] | 64 to 67 °C
COc1cccc(Oc2nnc(Cl)cc2O)c1OC [Compound No. 503, 6-Chloro-3-(2,3-dimethoxyphenoxy)-4-pyridazinol] | 199 to 201 °C
Oc1cc(Cl)nnc1Oc1cccc2c1CC1CC21 (stereo not drawn) [Compound No. 516, 3-(1,1a,6,6a-Tetrahydrocyclopropa[a]inden-5-yloxy)-6-chloro-4-pyridazinol] | 211 to 213 °C
Cc1cccc(C2CC2)c1Oc1nnc(Cl)cc1OC(=O)c1cnccc1C(F)(F)F [Compound No. 3462, 6-Chloro-3-(2-cyclopropyl-6-methylphenoxy)-4-pyridazinyl 4-(trifluoromethyl)nicotinate] | 92 to 93 °C
CCCc1ccccc1Oc1nnc(Cl)cc1O [Compound No. 131, 6-Chloro-3-(2-propylphenoxy)-4-pyridazinol] | 170 to 172 °C
Oc1cc(Cl)nnc1Oc1cccc(-c2ccco2)c1 [Compound No. 419, 6-Chloro-3-[3-(2-furyl)phenoxy]-4-pyridazinol] | 200 to 202 °C
Oc1cc(Cl)nnc1Oc1cccc2c1CC2 [Compound No. 505, 3-(Bicyclo[4.2.0]octa-1,3,5-trien-2-yloxy)-6-chloro-4-pyridazinol] | 145 to 155 °C
CC1(C)Cc2cccc(Oc3nnc(Cl)cc3O)c2O1 [Compound No. 540, 6-Chloro-3-[(2,2-dimethyl-2,3-dihydro-1-benzofuran-7-yl)oxy]-4-pyridazinol] | 228 to 229.5 °C
Cc1ccc(S(=O)(=O)Oc2c(Cl)cnnc2Oc2ccccc2C)cc1 (as salt: benzene sulfonate) [Compound No. 66, 5-Chloro-3-(2-methylphenoxy)-4-pyridazinyl 4-methylbenzene sulfonate] | 140 to 143 °C
COC1(c2ccccc2Oc2nnc(Cl)cc2O)CC1 [Compound No. 202, 6-Chloro-3-[2-(1-methoxycyclopropyl)phenoxy]-4-pyridazinol] | 157 to 165 °C
COc1cscc1C(=O)Oc1cc(Cl)nnc1Oc1c(C)cccc1C1CC1 [Compound No. 3378, 6-Chloro-3-(2-cyclopropyl-6-methylphenoxy)-4-pyridazinyl 4-methoxy-3-thiophenecarboxylate] | 146 to 149 °C
CC(C)c1cc(Oc2nnc(Cl)cc2O)cc(C(C)C)c1 [Compound No. 642, 6-Chloro-3-(3,5-diisopropylphenoxy)-4-pyridazinol] | 231 to 235 °C
Oc1cc(Cl)nnc1Oc1ccccc1C1CC1(Cl)Cl (stereo not drawn) [Compound No. 265, 6-Chloro-3-[2-(2,2-dichlorocyclopropyl)phenoxy]-4-pyridazinol] | 158 to 163 °C
Oc1cc(Cl)nnc1Oc1ccc(F)cc1 [Compound No. 426, 6-Chloro-3-(4-fluorophenoxy)-4-pyridazinol] | 241 to 248 °C
Oc1cc(Cl)nnc1Oc1ccccc1Cl [Compound No. 125, 6-Chloro-3-(2-chlorophenoxy)-4-pyridazinol] | 208 to 212 °C
CS(=O)(=O)Oc1cc(Cl)nnc1Oc1ccccc1C1CC1 [Compound No. 1985, 6-Chloro-3-(2-cyclopropylphenoxy)-4-pyridazinyl methanesulfonate] | 162 to 172 °C

Structure (SMILES) | melting point
Oc1cc(Cl)nnc1Oc1c(Cl)cccc1I [Compound No. 735, 6-Chloro-3-(2-chloro-6-iodophenoxy)-4-pyridazinol] | 262 to 264 °C
Oc1cc(Cl)nnc1Oc1ccccc1I [Compound No. 127, 6-Chloro-3-(2-iodophenoxy)-4-pyridazinol] | 216 to 217 °C
Oc1cc(Cl)nnc1Oc1ccccc1C1CC1(Br)Br (stereo not drawn) [Compound No. 266, 6-Chloro-3-[2-(2,2-dibromocyclopropyl)phenoxy]-4-pyridazinol] | 208 to 210 °C (dec.)
Oc1cc(Cl)nnc1Oc1ccccc1C1CC1 [Compound No. 139, 6-Chloro-3-(2-cyclopropylphenoxy)-4-pyridazinol] | 229 to 231 °C
CC(C)Cc1ccccc1Oc1nnc(Cl)cc1O [Compound No. 134, 6-Chloro-3-(2-isobutylphenoxy)-4-pyridazinol] | 151.5 to 152.5 °C
Cc1cccc(C2CC2)c1Oc1nnc(Cl)cc1OC(=O)N(C)C(C)(C)C | 113 to 115 °C
Oc1cc(Cl)nnc1Oc1ccccc1 [Compound No. 123, 6-Chloro-3-phenoxy-4-pyridazinol] | 222 to 224 °C
CCc1c(C)cc(C)c(C)c1Oc1nnc(Cl)cc1O [Compound No. 2601, 6-Chloro-3-(2-ethyl-3,5,6-trimethylphenoxy)-4-pyridazinol] | 188 to 195 °C
CCc1ccc2c(c1Oc1nnc(Cl)cc1O)CCC2 [Compound No. 1089, 6-Chloro-3-[(5-ethyl-2,3-dihydro-1H-inden-4-yl)oxy]-4-pyridazinol] | 193 to 196 °C
Cc1ccc(S(=O)(=O)Oc2cc(Cl)nnc2Oc2ccccc2-c2ccccc2)cc1 [Compound No. 2231, 3-([1,1′-Biphenyl]-2-yloxy)-6-chloro-4-pyridazinyl 4-methylbenzenesulfonate] | 106 to 108 °C
CCOC(=O)Oc1cc(Cl)nnc1Oc1ccccc1C [Compound No. 1706, 6-Chloro-3-(2-methylphenoxy)-4-pyridazinyl ethyl carbonate] | 73 to 74 °C
Cc1cccc(C2CC2)c1Oc1nnc(Cl)cc1OC(=O)N(CCC#N)CCC#N | 159 to 161 °C
CC(C)c1cccc(I)c1Oc1nnc(Cl)cc1O [Compound No. 782, 6-Chloro-3-(2-iodo-6-isopropylphenoxy)-4-pyridazinol] | 250 to 255 °C
Oc1cc(Cl)nnc1Oc1c(Br)cccc1Br [Compound No. 756, 6-Chloro-3-(2,6-dibromophenoxy)-4-pyridazinol] | 274 to 278 °C
Cc1ccc(N(C)C)cc1Oc1nnc(Cl)cc1O [Compound No. 628, 6-Chloro-3-[5-(dimethylamino)-2-methylphenoxy]-4-pyridazinol] | 181 to 182 °C
CC1CC1c1ccccc1Oc1nnc(Cl)cc1O (stereo not drawn) [Compound No. 217, 6-Chloro-3-[2-(2-methylcyclopropyl)phenoxy]-4-pyridazinol] | 192 to 208 °C
C=CCc1ccccc1Oc1nnc(Cl)cc1O [Compound No. 307, 3-(2-Allylphenoxy)-6-chloro-4-pyridazinol] | 200 to 202.5 °C
Cc1cccc(C2CC2)c1Oc1nnc(Cl)cc1OC(=O)CC(C)(C)C [Compound No. 2662, 6-Chloro-3-(2-cyclopropyl-6-methylphenoxy)-4-pyridazinyl 3,3-dimethylbutanoate] | 91 to 92 °C
O=[N+]([O-])c1cccc(Oc2nnc(Cl)cc2O)c1 [Compound No. 424, 6-Chloro-3-(3-nitrophenoxy)-4-pyridazinol] | 217 to 219 °C
CCc1ccccc1Oc1nnc(Cl)cc1O [Compound No. 130, 6-Chloro-3-(2-ethylphenoxy)-4-pyridazinol] | 217 to 218 °C
Oc1cc(Cl)nnc1Oc1ccccc1Cc1ccccc1 [Compound No. 315, 3-(2-Benzylphenoxy)-6-chloro-4-pyridazinol] | 185 to 187 °C
Oc1cc(Cl)nnc1Oc1cccc(OCc2ccccc2)c1 [Compound No. 2547, 3-[3-(Benzyloxy)phenoxy]-6-chloro-4-pyridazinol] | 184 to 185 °C
COc1ccc(C2CC2)c(Oc2nnc(Cl)cc2O)c1C [Compound No. 1069, 6-Chloro-3-(6-cyclopropyl-3-methoxy-2-methylphenoxy)-4-pyridazinol] | 250 to 253 °C
O=C(Oc1cc(Cl)nnc1Oc1ccccc1C1CC1)C1CC1 [Compound No. 1266, 6-Chloro-3-(2-cyclopropylphenoxy)-4-pyridazinyl cyclopropanecarboxylate] | 122 to 125 °C
Cc1cc(F)ccc1Oc1nnc(Cl)cc1O [Compound No. 557, 6-Chloro-3-(4-fluoro-2-methylphenoxy)-4-pyridazinol] | 249 to 250 °C
